Earlier results, collected in patent publication US6867034B2, “Methods of screening novel agents for use in cancer therapy and prevention” (The Curators of The University of Missouri, priority 2000, dated 2005).

Experiments:
repB = conditions: after cisplatin treatment, versus basal levels
Dictyostelium cells = conditions: 300 μM cisplatin
repD = conditions: after cisplatin treatment, versus basal levels

N.N.[Cl][Pt][Cl] [cisplatin]
levels of repB mRNA (repB): rapidly increase from basal levels
viability of the cells (Dictyostelium cells): reduced by three orders of magnitude
levels of repD mRNA (repD): rapidly increase from basal levels
